The values below come from paper PMC7226045, “Ensartinib (X-396) Effectively Modulates Pharmacokinetic Resistance Mediated by ABCB1 and ABCG2 Drug Efflux Transporters and CYP3A4 Biotransformation Enzyme” (Cancers, 2020).

The target of one experiment is T1, CYP2C9 (Homo sapiens, UniProt P11712).
T1 construct: purchased Thermo Fisher Scientific; host or cells: insect microsomal fractions
The experiment can be described thus: Vivid CYP screening kit, recombinant CYP2C9. In kind it is biochemical. To be noted: recombinant enzyme, 15 min incubation, absolute IC50; read-out: CYP2C9 inhibition IC50. On the procedure:
CYP inhibitory assay was performed as described previously. Experiments were performed with commercial Vivid CYP screening kits containing insect microsomal fractions enriched with a specific human CYP isoform, human CYP reductase, and in some cases, human cytochrome b5. The potential inhibitory activity of ensartinib toward CYP1A2, CYP2B6, CYP2C8, CYP2C9, CYP2C19, CYP2D6, CYP3A4, and CYP3A5 (i.e., all CYP isoforms that drug regulatory authorities recommend for testing of inhibition by new molecular entities) was then examined. Experiments were performed using a kinetic mode in black 96-well plates according to the manufacturer´s instructions. Briefly, 5-point serial dilutions of ensartinib or the model inhibitor recommended by the manufacturer in buffer were transferred into the wells, then a master mix consisting of a CYP isoenzyme with an NADPH regeneration system in buffer was added. After a 10 min pre-incubation, the reaction was initiated by adding a mixture of NADP^+ and the appropriate Vivid substrate, after which fluorescence was measured at 1 min intervals for 60 min using an Infinite M200 Pro microplate reader (Tecan, Männedorf, Switzerland). The enzyme concentration and incubation interval used for data evaluation (15 min) placed the systems within the linear regions of the appropriate reaction velocity curves. […]

In a further experiment the target is T2, ABCB1 (Homo sapiens, UniProt P08183).
T2 construct: expressed in transfected cells; host or cells: MDCKII-ABCB1 (from Dr. Alfred Schinkel, The Netherlands Cancer Institute)
The experiment is described as follows: daunorubicin accumulation assay (flow cytometry) in MDCKII-ABCB1 cells. In kind it is cell-based. The conditions noted are these: 2 µM daunorubicin, 1 h, read-out: IC50, inhibition of ABCB1 (daunorubicin accumulation). How it is done: The flow-cytometric inhibitory assay with daunorubicin and mitoxantrone was performed with minor modifications as described previously. MDCKII-par, MDCKII-ABCB1, MDCKII-ABCG2, and MDCKII-ABCC1 cell lines were seeded at densities of 22.0 × 10^4, 15.0 × 10^4, 25.0 × 10^4, and 22.0 × 10^4 cells/well, respectively, on a 12-well plate and then incubated for 24 h to reach approximately 70–80% confluence. Further steps including cell washing, the preparation of drug/model inhibitor dilutions, and their addition to cells were performed as described above. After the 10 min pre-incubation period, 2 µM daunorubicin (a substrate of ABCB1/ABCC1) or 1 µM mitoxantrone (ABCG2 substrate) were promptly added to all wells other than those containing background samples, then the plate was incubated for 1 h under standard conditions. The plates were subsequently placed on ice, the cells were washed twice with ice-cold 1× PBS, and 10× trypsin without phenol red was added. After complete trypsinization, the cells were vigorously resuspended in ice-cold 1× PBS containing 2% FBS. Samples were then transferred into test-tubes and kept on ice until their fluorescence could be measured using a flow cytometer (BD FACSCanto II, Allschwil, Switzerland). The excitation/emission wavelengths for daunorubicin and mitoxantrone were 490/565 and 640/670 nm, respectively.

The IC50 is the concentration at which inhibition is half-maximal.

T1 sequence (P11712 whole entry): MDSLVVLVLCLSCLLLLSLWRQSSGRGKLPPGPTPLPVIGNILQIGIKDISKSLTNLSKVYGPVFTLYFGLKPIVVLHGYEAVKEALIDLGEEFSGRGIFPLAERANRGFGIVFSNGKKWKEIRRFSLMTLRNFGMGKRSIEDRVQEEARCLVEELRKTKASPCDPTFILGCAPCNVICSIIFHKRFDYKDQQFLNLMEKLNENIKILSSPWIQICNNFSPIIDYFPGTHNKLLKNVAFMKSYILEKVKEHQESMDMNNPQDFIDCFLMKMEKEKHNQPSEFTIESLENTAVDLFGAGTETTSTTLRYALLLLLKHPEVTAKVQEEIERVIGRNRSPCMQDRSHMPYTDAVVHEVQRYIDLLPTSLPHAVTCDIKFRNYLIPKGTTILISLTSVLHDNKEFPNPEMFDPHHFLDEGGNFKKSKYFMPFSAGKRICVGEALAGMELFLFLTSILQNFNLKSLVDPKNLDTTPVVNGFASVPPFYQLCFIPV
T2 sequence (P08183 whole entry): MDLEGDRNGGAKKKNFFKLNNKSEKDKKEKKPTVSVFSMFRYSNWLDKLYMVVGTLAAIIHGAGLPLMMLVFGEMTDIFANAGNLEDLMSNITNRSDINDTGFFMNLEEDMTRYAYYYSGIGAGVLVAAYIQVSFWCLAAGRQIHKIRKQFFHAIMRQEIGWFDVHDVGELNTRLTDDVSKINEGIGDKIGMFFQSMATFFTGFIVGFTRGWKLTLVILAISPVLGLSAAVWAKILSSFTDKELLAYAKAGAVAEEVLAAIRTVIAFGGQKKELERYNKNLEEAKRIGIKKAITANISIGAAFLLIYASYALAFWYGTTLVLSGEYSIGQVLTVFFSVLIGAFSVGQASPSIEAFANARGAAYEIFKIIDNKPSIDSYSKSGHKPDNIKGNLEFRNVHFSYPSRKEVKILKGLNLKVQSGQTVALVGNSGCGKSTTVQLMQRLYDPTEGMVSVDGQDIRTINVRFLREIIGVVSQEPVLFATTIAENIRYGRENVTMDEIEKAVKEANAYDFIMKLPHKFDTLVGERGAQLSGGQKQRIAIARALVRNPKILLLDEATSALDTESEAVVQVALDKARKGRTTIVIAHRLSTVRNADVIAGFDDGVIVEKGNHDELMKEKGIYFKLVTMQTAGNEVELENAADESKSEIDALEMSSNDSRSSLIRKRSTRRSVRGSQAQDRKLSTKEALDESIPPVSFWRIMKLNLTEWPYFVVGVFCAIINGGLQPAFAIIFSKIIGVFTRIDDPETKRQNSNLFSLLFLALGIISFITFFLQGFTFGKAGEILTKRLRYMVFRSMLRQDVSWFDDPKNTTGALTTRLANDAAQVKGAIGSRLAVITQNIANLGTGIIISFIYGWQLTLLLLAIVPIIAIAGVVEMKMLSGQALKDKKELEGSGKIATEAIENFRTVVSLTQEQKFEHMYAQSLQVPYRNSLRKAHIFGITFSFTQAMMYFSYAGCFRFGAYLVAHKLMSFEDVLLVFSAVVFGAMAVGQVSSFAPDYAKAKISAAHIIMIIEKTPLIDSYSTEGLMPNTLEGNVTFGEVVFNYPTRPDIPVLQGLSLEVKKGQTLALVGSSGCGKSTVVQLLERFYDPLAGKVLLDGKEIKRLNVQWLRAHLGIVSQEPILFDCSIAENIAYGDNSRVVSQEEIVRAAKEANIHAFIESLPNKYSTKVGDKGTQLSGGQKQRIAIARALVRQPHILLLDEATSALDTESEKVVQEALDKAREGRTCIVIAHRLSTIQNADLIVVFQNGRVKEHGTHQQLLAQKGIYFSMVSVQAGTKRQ

Consider `C[C@@H]1CN(C(=O)c2ccc(NC(=O)c3cc(O[C@H](C)c4c(Cl)ccc(F)c4Cl)c(N)nn3)cc2)C[C@H](C)N1` [ensartinib, Ensartinib], for which the IC50 is 4.93 µM on CYP2C9 and 4.75 µM at ABCB1.
